Test systems include U251 CNS; NCI-H522 lung; SK-OV-3 ovarian; OVCAR-5 ovarian; IGROV1 ovarian; UACC-62 melanoma; TK-10 renal; A549 NSCLC; SF-295 CNS; CAKI-1 renal.
Common to all, as to test: growth of human tumour cells (NCI), 48 h

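Five compound concentrations were applied to cells in 96-well plates for 48 hours; endpoints were derived by simple linear interpolation of the resulting dose-response curve. At the GI50, growth is halved. The concentration for full growth arrest is given as TGI.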

Take `COC(=O)Nc1nc2ccc(Br)cc2[nH]1`: the TGI with U251 CNS was 87 µM; in the experiment with NCI-H522 lung, 32.8 µM; with SK-OV-3 ovarian, 67.9 µM; in the experiment on OVCAR-5 ovarian, above 100 µM; in the experiment on IGROV1 ovarian, above 100 µM; with UACC-62 melanoma, above 100 µM. The TGI in the experiment on TK-10 renal, with A549 NSCLC and with SF-295 CNS was above 100 µM each time.

For the molecule `CC1(C)CCC[C@]2(C)[C@H]3[C@H](C#N)c4cc(O)c(O)cc4O[C@@]3(C)CC[C@@H]12`, the TGI in the experiment on U251 CNS, in the experiment on NCI-H522 lung, in the experiment on SK-OV-3 ovarian, with OVCAR-5 ovarian, with IGROV1 ovarian and with CAKI-1 renal was above 10 µM each time. The TGI with TK-10 renal and in the experiment with SF-295 CNS was above 10 µM throughout.

Take `Oc1ccc2oc3ncc(Br)c(-c4ccccc4)c3c2c1`: the GI50 in the experiment on U251 CNS, with NCI-H522 lung, in the experiment on SK-OV-3 ovarian, with OVCAR-5 ovarian, in the experiment on IGROV1 ovarian and in the experiment on CAKI-1 renal was above 100 µM each time. Moreover, the GI50 in the experiment on TK-10 renal, in the experiment with A549 NSCLC and in the experiment on SF-295 CNS was above 100 µM each time. Besides, the TGI in the experiment on U251 CNS, in the experiment on NCI-H522 lung, with SK-OV-3 ovarian, in the experiment with OVCAR-5 ovarian, in the experiment on IGROV1 ovarian and in the experiment with CAKI-1 renal was above 100 µM each time. Moreover, the TGI with TK-10 renal, with A549 NSCLC and in the experiment with SF-295 CNS was above 100 µM in each case.

In the case of `COc1ccccc1NC(=O)CC(=O)N/N=C/c1ccc(N(CCC#N)S(=O)(=O)c2ccccc2)cc1`, the TGI in the experiment with U251 CNS, in the experiment with NCI-H522 lung, with OVCAR-5 ovarian, in the experiment with IGROV1 ovarian, in the experiment on UACC-62 melanoma and with CAKI-1 renal was above 100 µM in each case. Moreover, the TGI in the experiment on TK-10 renal, with A549 NSCLC and in the experiment on SF-295 CNS was above 100 µM each time.

On to `Cc1cc(C)cc(NC(N)=S)c1`, for which the TGI in the experiment on U251 CNS, in the experiment on NCI-H522 lung, in the experiment with OVCAR-5 ovarian, in the experiment with IGROV1 ovarian, with UACC-62 melanoma and in the experiment with CAKI-1 renal was above 100 µM throughout. The TGI in the experiment on TK-10 renal, in the experiment on A549 NSCLC and in the experiment with SF-295 CNS was above 100 µM each time.

Consider `COc1ccc(C2ON(c3cccc(C)n3)CC=C2C)cc1` (stereo unspecified), for which the TGI in the experiment with U251 CNS is above 100 µM; in the experiment with NCI-H522 lung it was 54.8 µM; in the experiment with SK-OV-3 ovarian, above 100 µM; with OVCAR-5 ovarian, above 100 µM; with IGROV1 ovarian, above 100 µM; in the experiment on UACC-62 melanoma it was above 100 µM. The TGI in the experiment with CAKI-1 renal, in the experiment with A549 NSCLC and in the experiment with SF-295 CNS was above 100 µM in each case.

Consider `COC(C)(C)C/C=C/C(C)=C/C=C/C(C)=C\C=C\C(C)=C\C=C\C=C(C)\C=C\C=C(C)\C=C\C=C(C)\C=C\CC(C)(C)OC`, for which the GI50 in the experiment on U251 CNS, in the experiment with NCI-H522 lung, in the experiment on OVCAR-5 ovarian, in the experiment on IGROV1 ovarian, in the experiment with UACC-62 melanoma and in the experiment on CAKI-1 renal was above 150 µg/mL in each case. Besides, the GI50 in the experiment with TK-10 renal and in the experiment with A549 NSCLC was above 150 µg/mL throughout. The TGI in the experiment on U251 CNS, in the experiment on NCI-H522 lung, in the experiment with OVCAR-5 ovarian, with IGROV1 ovarian, in the experiment on UACC-62 melanoma and in the experiment with CAKI-1 renal was above 150 µg/mL each time. The TGI in the experiment on TK-10 renal and in the experiment on A549 NSCLC was above 150 µg/mL each time.

As for `O=C(NC12CC3CC(CC(C3)C1)C2)C(=O)c1c[nH]c2ccccc12`, the TGI with U251 CNS turned out to be 26.7 µM; in the experiment on NCI-H522 lung, 31.7 µM; in the experiment with SK-OV-3 ovarian it was 29.5 µM; with OVCAR-5 ovarian, 32.1 µM; in the experiment with IGROV1 ovarian, 29.3 µM; in the experiment on UACC-62 melanoma it was 26.5 µM. The TGI was 44.5 µM in the experiment on TK-10 renal, 30.2 µM with A549 NSCLC and 22.4 µM in the experiment on SF-295 CNS.

For the molecule `CC(=O)C1=C(O)CC2CC3c4[nH]c5ccccc5c4CCN3CC2C1` (stereo unspecified), the TGI in the experiment with U251 CNS, with NCI-H522 lung, in the experiment on SK-OV-3 ovarian, in the experiment with OVCAR-5 ovarian, in the experiment with IGROV1 ovarian and with TK-10 renal was above 100 µM in each case. The TGI in the experiment on A549 NSCLC and in the experiment with SF-295 CNS was above 100 µM throughout.

As to `COC(=O)/C=C/c1cc2c(cc1-c1c(C(=O)O)cc(OC)c(OC)c1OC)OCO2`, the TGI with U251 CNS, in the experiment with NCI-H522 lung, in the experiment with SK-OV-3 ovarian, in the experiment on IGROV1 ovarian, with UACC-62 melanoma and in the experiment with CAKI-1 renal was above 10 µM throughout. Also, the TGI with TK-10 renal, in the experiment on A549 NSCLC and in the experiment on SF-295 CNS was above 10 µM each time.

With `O=C(c1ccccc1)c1cn(/N=C\c2ccccc2)c(=O)nc1-c1ccccc1`, the TGI in the experiment on U251 CNS, in the experiment with NCI-H522 lung, in the experiment with SK-OV-3 ovarian, in the experiment on OVCAR-5 ovarian, in the experiment on UACC-62 melanoma and in the experiment on TK-10 renal was above 100 µM throughout. In addition, the TGI in the experiment with A549 NSCLC and with SF-295 CNS was above 100 µM in each case.

`CCOc1ccc2nc(NC(=O)C(=O)C(c3cnc4ccccc4n3)[N+](=O)[O-])sc2c1` (stereo unspecified): the TGI with NCI-H522 lung, with SK-OV-3 ovarian, in the experiment on OVCAR-5 ovarian, in the experiment with IGROV1 ovarian, in the experiment with UACC-62 melanoma and in the experiment on CAKI-1 renal was above 100 µM throughout. The TGI in the experiment with TK-10 renal, in the experiment on A549 NSCLC and with SF-295 CNS was above 100 µM in each case.
